Test results as given in the supplement of paper PMC10307832.

Columns and labels:
Assay in all cases: relative viability (nuclei count vs DMSO), 5 days (fraction); higher = more cells survive
[1] = tested on: NCI-H522
Summary of the method: (§1)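 Relative viability is defined as nuclei in treated wells over nuclei in vehicle wells. Duplicate plates were run and medians reported. Lung cancer cell lines in 1536-well plates were dosed by pin tool one day after seeding, with one drug or with a fixed anchor-drug dose plus five library-drug doses (not always all listed) in √10 steps, and nuclei were counted after 5 days.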

[2] = tested on: NCI-H1703
Summary of the method: as §1

[3] = tested on: NCI-H1651
Summary of the method: as §1

[4] = tested on: NCI-H1648
Summary of the method: as §1

[5] = tested on: RERF-LC-KJ
Summary of the method: as §1

[6] = tested on: NCI-H1299
Summary of the method: as §1

[7] = tested on: EBC-1
Summary of the method: as §1

[8] = tested on: A549
Summary of the method: as §1

[9] = tested on: NCI-H520
Summary of the method: as §1

[10] = tested on: IA-LM
Summary of the method: as §1

[11] = tested on: Calu-6
Summary of the method: as §1

[12] = tested on: NCI-H1623
Summary of the method: as §1

CC1(C)CCC(c2ccc(Cl)cc2)=C(CN2CCN(c3ccc(C(=O)NS(=O)(=O)c4ccc(N[C@H](CCN5CCOCC5)CSc5ccccc5)c(S(=O)(=O)C(F)(F)F)c4)cc3)CC2)C1 [Navitoclax] + NC(=O)Nc1cc(-c2cccc(F)c2)sc1C(=O)N[C@H]1CCCNC1 [AZD7762] (partner 0.2 µM)
relative viability ([1]; first compound 0.005 µM): 0.748
relative viability ([1]; first compound 0.01581 µM): 0.987
relative viability ([1]; first compound 0.05 µM): 1.12
relative viability ([1]; first compound 0.1581 µM): 0.832
relative viability ([1]; first compound 0.5 µM): 0.9
relative viability ([2]; first compound 0.005 µM): 0.128
relative viability ([2]; first compound 0.01581 µM): 0.161
relative viability ([2]; first compound 0.05 µM): 0.149
relative viability ([2]; first compound 0.5 µM): 0.122
relative viability ([3]; first compound 0.005 µM): 0.485
relative viability ([3]; first compound 0.01581 µM): 0.488
relative viability ([3]; first compound 0.05 µM): 0.335
relative viability ([3]; first compound 0.1581 µM): 0.474
relative viability ([3]; first compound 0.5 µM): 0.466
relative viability ([4]; first compound 0.005 µM): 0.799
relative viability ([4]; first compound 0.01581 µM): 0.669
relative viability ([4]; first compound 0.1581 µM): 0.667
relative viability ([4]; first compound 0.5 µM): 0.604
relative viability ([5]; first compound 0.005 µM): 1
relative viability ([5]; first compound 0.01581 µM): 1.08
relative viability ([5]; first compound 0.05 µM): 0.824
relative viability ([5]; first compound 0.1581 µM): 1.12
relative viability ([5]; first compound 0.5 µM): 0.921

CC1(C)CCC(c2ccc(Cl)cc2)=C(CN2CCN(c3ccc(C(=O)NS(=O)(=O)c4ccc(N[C@H](CCN5CCOCC5)CSc5ccccc5)c(S(=O)(=O)C(F)(F)F)c4)cc3)CC2)C1 [Navitoclax] + O=C(c1cc(Cc2n[nH]c(=O)c3ccccc23)ccc1F)N1CCN(C(=O)C2CC2)CC1 [Olaparib] (partner 8 µM)
relative viability ([6]; first compound 0.005 µM): 0.943
relative viability ([6]; first compound 0.01581 µM): 1
relative viability ([6]; first compound 0.05 µM): 0.949
relative viability ([6]; first compound 0.1581 µM): 0.977
relative viability ([6]; first compound 0.5 µM): 0.956
relative viability ([7]; first compound 0.005 µM): 0.745
relative viability ([7]; first compound 0.01581 µM): 0.864
relative viability ([7]; first compound 0.05 µM): 0.658
relative viability ([7]; first compound 0.1581 µM): 0.683
relative viability ([7]; first compound 0.5 µM): 0.663
relative viability ([1]; first compound 0.005 µM): 0.657
relative viability ([1]; first compound 0.01581 µM): 0.745
relative viability ([1]; first compound 0.05 µM): 0.757
relative viability ([1]; first compound 0.1581 µM): 0.542
relative viability ([1]; first compound 0.5 µM): 0.62
relative viability ([8]; first compound 0.005 µM): 0.37
relative viability ([8]; first compound 0.01581 µM): 0.33
relative viability ([8]; first compound 0.05 µM): 0.119
relative viability ([8]; first compound 0.1581 µM): 0.33
relative viability ([8]; first compound 0.5 µM): 0.302
relative viability ([2]; first compound 0.005 µM): 0.536
relative viability ([2]; first compound 0.01581 µM): 0.626
relative viability ([2]; first compound 0.05 µM): 0.508
relative viability ([2]; first compound 0.1581 µM): 0.512
relative viability ([2]; first compound 0.5 µM): 0.536
relative viability ([9]; first compound 0.005 µM): 0.346
relative viability ([9]; first compound 0.01581 µM): 0.299
relative viability ([9]; first compound 0.05 µM): 0.336
relative viability ([9]; first compound 0.1581 µM): 0.318
relative viability ([9]; first compound 0.5 µM): 0.33
relative viability ([3]; first compound 0.005 µM): 0.167
relative viability ([3]; first compound 0.01581 µM): 0.181
relative viability ([3]; first compound 0.05 µM): 0.152
relative viability ([3]; first compound 0.1581 µM): 0.189
relative viability ([3]; first compound 0.5 µM): 0.197
relative viability ([10]; first compound 0.005 µM): 0.814
relative viability ([10]; first compound 0.01581 µM): 0.836
relative viability ([10]; first compound 0.05 µM): 0.792
relative viability ([10]; first compound 0.1581 µM): 0.789
relative viability ([10]; first compound 0.5 µM): 0.866
relative viability ([4]; first compound 0.005 µM): 0.632
relative viability ([4]; first compound 0.01581 µM): 1.06
relative viability ([4]; first compound 0.1581 µM): 0.922
relative viability ([4]; first compound 0.5 µM): 1.03
relative viability ([11]; first compound 0.005 µM): 0.57
relative viability ([11]; first compound 0.01581 µM): 0.518
relative viability ([11]; first compound 0.05 µM): 0.558
relative viability ([11]; first compound 0.1581 µM): 0.457
relative viability ([11]; first compound 0.5 µM): 0.478
relative viability ([5]; first compound 0.005 µM): 0.887
relative viability ([5]; first compound 0.01581 µM): 0.796
relative viability ([5]; first compound 0.05 µM): 0.917
relative viability ([5]; first compound 0.1581 µM): 0.861
relative viability ([5]; first compound 0.5 µM): 0.983

Oc1nc(-c2ccc(C(F)(F)F)cc2)nc2c1CSCC2 [XAV939] + CCNC(=O)c1noc(-c2cc(C(C)C)c(O)cc2O)c1-c1ccc(CN2CCOCC2)cc1 [Luminespib] (partner 0.01 µM)
relative viability ([1]; first compound 0.08 µM): 1.45
relative viability ([1]; first compound 0.253 µM): 1.24
relative viability ([1]; first compound 0.8 µM): 1.05
relative viability ([1]; first compound 2.53 µM): 1.09
relative viability ([12]; first compound 0.08 µM): 0.493
relative viability ([12]; first compound 0.253 µM): 0.432
relative viability ([12]; first compound 0.8 µM): 0.415
relative viability ([12]; first compound 2.53 µM): 0.357
relative viability ([9]; first compound 0.08 µM): 0.233
relative viability ([9]; first compound 0.253 µM): 0.243
relative viability ([9]; first compound 0.8 µM): 0.201
relative viability ([9]; first compound 2.53 µM): 0.204
relative viability ([3]; first compound 0.08 µM): 0.988
relative viability ([3]; first compound 0.253 µM): 0.699
relative viability ([3]; first compound 0.8 µM): 0.896
relative viability ([3]; first compound 2.53 µM): 0.725
relative viability ([5]; first compound 0.08 µM): 1.21
relative viability ([5]; first compound 0.253 µM): 1.06
relative viability ([5]; first compound 0.8 µM): 1.07
relative viability ([5]; first compound 2.53 µM): 0.844
